According to US10526316B2, “Quinoxaline and pyridopyrazine derivatives as PI3Kβ inhibitors” (Janssen Pharmaceutica NV, priority 2015, dated 2020):
pIC50, pKd: −log10 of the molar value. Like-named read-outs stand apart in the source and are kept apart here.

How the values were obtained:
[1] = target: T1, PI3Kβ (Homo sapiens, UniProt P42338); assay: Enzyme binding assay (KINOMEscan, DiscoveRx); conditions: PIK3Cβ_h, read-out: Kd PIK3Cβ_h
T1 construct: purchased DiscoveRx Corporation, San Diego (contract service, KINOMEscan)
Outline: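 Kinase binding affinities were measured with KINOMEscan technology. Results are given as Kd, the inhibitor binding constant, in nM.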

[2] = target: T2, PI3Kδ (Homo sapiens, UniProt O00329); assay: Enzyme binding assay (KINOMEscan, DiscoveRx); conditions: PIK3Cδ_h
T2 construct: purchased DiscoveRx Corporation, San Diego (contract service, KINOMEscan)
T2 sequence (O00329 1-1044): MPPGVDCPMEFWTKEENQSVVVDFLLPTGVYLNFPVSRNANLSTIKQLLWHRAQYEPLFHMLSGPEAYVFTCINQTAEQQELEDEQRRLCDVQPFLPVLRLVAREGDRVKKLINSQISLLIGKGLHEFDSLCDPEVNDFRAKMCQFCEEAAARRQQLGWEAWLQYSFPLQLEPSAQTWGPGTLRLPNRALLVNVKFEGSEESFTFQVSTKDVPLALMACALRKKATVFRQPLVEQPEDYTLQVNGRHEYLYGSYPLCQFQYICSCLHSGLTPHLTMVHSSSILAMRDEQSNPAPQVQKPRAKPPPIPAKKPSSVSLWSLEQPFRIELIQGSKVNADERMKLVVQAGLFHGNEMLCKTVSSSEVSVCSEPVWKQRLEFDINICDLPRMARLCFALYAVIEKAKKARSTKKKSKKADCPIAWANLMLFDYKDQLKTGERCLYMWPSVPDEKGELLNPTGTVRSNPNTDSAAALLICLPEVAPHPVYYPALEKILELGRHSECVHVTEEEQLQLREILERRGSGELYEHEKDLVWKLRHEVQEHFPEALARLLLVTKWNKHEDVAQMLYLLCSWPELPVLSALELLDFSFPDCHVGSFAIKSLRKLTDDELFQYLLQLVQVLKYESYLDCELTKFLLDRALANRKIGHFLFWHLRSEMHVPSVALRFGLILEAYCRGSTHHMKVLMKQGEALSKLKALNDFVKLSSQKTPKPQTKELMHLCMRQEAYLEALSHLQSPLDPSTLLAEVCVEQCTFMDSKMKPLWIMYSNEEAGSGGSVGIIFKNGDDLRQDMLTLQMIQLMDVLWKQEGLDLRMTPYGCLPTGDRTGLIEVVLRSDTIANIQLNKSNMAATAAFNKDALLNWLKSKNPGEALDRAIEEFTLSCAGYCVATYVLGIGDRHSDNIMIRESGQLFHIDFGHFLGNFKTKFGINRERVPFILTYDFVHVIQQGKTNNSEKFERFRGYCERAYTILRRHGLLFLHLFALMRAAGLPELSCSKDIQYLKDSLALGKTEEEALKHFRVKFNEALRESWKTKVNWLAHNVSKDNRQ
Outline: (§1)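 Binding affinities were measured on the KINOMEscan platform.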

[3] = target: T3, kinase enzymes (Homo sapiens, UniProt P42336); assay: Enzyme binding assay (KINOMEscan, DiscoveRx), further kinases of Table A; conditions: PIK3Cα_h
T3 construct: purchased DiscoveRx Corporation, San Diego (contract service, KINOMEscan)
Outline: as §1

[4] = target: T4, kinase enzymes (Homo sapiens, UniProt P42345); assay: as above; conditions: MTOR_h
T4 construct: purchased DiscoveRx Corporation, San Diego (contract service, KINOMEscan)
Outline: as §1

[5] = target: T5, kinase enzymes (Homo sapiens, UniProt P48736); assay: as above; conditions: PIK3Cγ_h
T5 construct: purchased DiscoveRx Corporation, San Diego (contract service, KINOMEscan)
Outline: as §1

[6] = test system: Akt phosphorylated at Ser473 in PC-3 cells; assay: Cellular assay: phosphorylation of Akt at Ser473 in PC-3 cells (MSD ELISA); type: cell-based; conditions: PC-3 cells, 60 min compound incubation, MSD ELISA, read-out: IC50 pAkt_S473
Outline: (§2)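 Phospho-Akt in whole-cell lysates is quantified by electrochemiluminescent immunoassay using phospho-site capture and total-Akt detection antibodies.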

[7] = test system: Akt phosphorylated at Thr308 in PC-3 cells; assay: Cellular assay: phosphorylation of Akt at Thr308 in PC-3 cells (MSD ELISA); type: cell-based; conditions: PC-3 cells, 60 min compound incubation, MSD ELISA, read-out: IC50 pAkt_Thr308
Outline: as §2

T5 sequence (P48736 whole entry): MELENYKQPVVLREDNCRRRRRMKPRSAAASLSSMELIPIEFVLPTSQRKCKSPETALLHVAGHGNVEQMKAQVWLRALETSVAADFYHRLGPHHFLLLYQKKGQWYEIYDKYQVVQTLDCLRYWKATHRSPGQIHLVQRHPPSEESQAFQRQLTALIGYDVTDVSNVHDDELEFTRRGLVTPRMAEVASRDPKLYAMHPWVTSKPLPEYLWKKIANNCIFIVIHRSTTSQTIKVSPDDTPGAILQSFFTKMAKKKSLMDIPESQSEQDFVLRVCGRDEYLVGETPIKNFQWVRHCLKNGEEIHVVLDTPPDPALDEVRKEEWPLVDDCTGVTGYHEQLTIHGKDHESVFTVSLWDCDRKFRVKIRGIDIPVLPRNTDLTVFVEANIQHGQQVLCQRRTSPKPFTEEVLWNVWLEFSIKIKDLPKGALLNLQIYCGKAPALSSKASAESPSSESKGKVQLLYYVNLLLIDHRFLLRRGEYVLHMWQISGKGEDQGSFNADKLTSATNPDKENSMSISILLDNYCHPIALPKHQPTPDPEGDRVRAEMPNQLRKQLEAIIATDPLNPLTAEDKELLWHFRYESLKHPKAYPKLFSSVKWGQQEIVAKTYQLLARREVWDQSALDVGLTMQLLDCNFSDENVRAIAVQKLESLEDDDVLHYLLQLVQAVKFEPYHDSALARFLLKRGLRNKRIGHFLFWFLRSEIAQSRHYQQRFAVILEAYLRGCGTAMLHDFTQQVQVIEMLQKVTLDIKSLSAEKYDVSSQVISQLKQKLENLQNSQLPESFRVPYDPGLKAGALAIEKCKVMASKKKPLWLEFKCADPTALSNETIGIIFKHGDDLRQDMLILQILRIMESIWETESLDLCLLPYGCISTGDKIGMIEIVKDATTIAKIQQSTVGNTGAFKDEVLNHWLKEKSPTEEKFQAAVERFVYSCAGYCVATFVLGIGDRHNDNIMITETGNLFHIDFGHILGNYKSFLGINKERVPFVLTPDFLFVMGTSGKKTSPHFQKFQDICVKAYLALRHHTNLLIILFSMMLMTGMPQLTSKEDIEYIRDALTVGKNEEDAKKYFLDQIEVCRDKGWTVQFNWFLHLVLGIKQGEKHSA
T3 sequence (P42336 whole entry): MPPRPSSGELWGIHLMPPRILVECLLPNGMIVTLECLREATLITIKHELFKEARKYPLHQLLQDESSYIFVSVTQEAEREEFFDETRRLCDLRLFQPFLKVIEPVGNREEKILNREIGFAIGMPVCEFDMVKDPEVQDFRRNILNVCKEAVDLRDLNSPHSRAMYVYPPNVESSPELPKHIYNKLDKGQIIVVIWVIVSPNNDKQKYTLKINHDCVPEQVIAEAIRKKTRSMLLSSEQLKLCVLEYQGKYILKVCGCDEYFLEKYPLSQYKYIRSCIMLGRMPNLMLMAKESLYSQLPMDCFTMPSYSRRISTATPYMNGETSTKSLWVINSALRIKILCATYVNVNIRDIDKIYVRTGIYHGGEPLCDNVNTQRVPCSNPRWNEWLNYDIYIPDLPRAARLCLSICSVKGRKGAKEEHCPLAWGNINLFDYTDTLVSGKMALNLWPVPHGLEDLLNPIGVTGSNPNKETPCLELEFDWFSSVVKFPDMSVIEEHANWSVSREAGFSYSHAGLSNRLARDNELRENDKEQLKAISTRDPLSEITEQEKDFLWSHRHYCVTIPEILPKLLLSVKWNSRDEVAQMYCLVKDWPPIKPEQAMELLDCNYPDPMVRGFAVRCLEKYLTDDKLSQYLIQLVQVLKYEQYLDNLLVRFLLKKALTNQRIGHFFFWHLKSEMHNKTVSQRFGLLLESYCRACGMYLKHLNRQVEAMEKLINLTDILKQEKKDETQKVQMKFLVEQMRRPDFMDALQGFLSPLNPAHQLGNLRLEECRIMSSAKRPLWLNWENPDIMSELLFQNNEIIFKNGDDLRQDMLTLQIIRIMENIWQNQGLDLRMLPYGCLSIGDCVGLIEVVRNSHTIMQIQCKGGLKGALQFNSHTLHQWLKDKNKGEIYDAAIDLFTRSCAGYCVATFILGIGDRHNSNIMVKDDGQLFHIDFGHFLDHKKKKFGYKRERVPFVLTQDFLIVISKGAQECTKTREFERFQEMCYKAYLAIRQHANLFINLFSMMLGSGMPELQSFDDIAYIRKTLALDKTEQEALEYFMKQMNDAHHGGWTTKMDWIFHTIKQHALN
T1 sequence (P42338 whole entry): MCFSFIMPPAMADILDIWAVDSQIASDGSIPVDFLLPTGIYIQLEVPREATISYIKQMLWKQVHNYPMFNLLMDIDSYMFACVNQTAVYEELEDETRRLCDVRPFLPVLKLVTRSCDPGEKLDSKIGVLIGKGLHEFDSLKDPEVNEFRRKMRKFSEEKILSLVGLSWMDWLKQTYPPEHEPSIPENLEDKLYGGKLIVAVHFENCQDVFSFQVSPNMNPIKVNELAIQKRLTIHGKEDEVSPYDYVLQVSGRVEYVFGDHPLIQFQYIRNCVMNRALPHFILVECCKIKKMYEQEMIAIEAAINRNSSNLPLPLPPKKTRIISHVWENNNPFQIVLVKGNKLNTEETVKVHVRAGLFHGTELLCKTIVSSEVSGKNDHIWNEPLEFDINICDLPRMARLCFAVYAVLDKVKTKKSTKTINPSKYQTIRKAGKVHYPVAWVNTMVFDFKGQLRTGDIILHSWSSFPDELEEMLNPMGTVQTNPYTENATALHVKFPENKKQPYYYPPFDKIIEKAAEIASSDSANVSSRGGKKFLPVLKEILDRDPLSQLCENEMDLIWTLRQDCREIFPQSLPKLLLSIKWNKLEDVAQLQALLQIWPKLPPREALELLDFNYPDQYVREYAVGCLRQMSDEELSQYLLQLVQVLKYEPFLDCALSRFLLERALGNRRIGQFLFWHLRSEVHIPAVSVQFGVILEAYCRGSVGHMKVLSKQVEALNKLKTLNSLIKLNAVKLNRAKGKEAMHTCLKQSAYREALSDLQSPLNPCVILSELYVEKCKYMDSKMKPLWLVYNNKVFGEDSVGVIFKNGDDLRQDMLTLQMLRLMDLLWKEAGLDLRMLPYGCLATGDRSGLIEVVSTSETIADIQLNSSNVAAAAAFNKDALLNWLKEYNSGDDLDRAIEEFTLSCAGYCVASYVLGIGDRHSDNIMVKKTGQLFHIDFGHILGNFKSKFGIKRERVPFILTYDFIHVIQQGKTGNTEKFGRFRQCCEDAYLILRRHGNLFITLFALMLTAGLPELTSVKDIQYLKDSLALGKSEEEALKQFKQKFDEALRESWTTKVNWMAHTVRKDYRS

| pKd [1] | pKd [2] | pKd [3] | pKd [4] | pKd [5] | pIC50 ([6]; Homo sapiens, PC-3, 1 h) | pIC50 ([7]; Homo sapiens, PC-3, 1 h) | melting point | pIC50 [6] | pIC50 [7] | Structure (SMILES) |
| --- | --- | --- | --- | --- | --- | --- | --- | --- | --- | --- |
| 7.82 | 5.93 | 5.43 | < 4.52 | 4.87 | ~6.66 | ~6.53 | 235 °C |  |  | CC(Oc1cc(F)ccc1Br)c1cc(C(=O)N(C)C)cc2ncc(N3CCOCC3)nc12 (stereo not shown) [Compound 78] |
| 8.70 | 6.40 | 5.53 | < 4.52 | 5.63 | 6.60 | 6.86 | 80 °C |  |  | CC(Nc1cc(F)cc(F)c1)c1cc(C(=O)NCCOCCN)cc2ncc(N3CCOCC3)nc12 (stereo not shown) [Compound 149] |
| 8.10 | 5.93 | 5.27 | 4.79 | 5.57 | 6.50 | 6.50 | 90 °C |  |  | CC(Nc1cc(F)cc(F)c1)c1cncc2ncc(N3CCOCC3)nc12 (stereo not shown) [Compound 153] |
| 8.00 | 5.80 | 5.27 | < 4.52 | < 4.52 | 6.46 | ~6.48 | 80 °C |  |  | COc1cccc(NC(C)c2cc(C(=O)N3CCOCC3)cc3ncc(N4CCOCC4)nc23)c1 (stereo not shown) [Compound 121] |
| 7.30 | 5.12 | < 4.52 | < 4.52 | 4.61 |  |  | 244 °C | ~6.67 | ~7.10 | COC(=O)c1cc(C(C)Nc2cc(F)cc(F)c2)c2nc(N3CCOCC3)cnc2c1 (stereo not shown) [Compound 80] |
| 8.22 | 6.12 | 5.67 | < 4.52 | 5.18 | 6.36 | 6.47 | 186 °C |  |  | CC(Nc1cccc(C#N)c1)c1cc(C(=O)N(C)C)cc2ncc(N3CCOCC3)nc12 (stereo not shown) [Compound 155] |
| 5.32 | < 4.52 | < 4.52 | < 4.52 | 4.86 | < 6.29 | < 6.29 | 200 °C |  |  | CC(Nc1cc(F)c(C(F)(F)F)c(F)c1)c1cc(C(=O)NCCO)cc2ncc(N3CCOCC3)nc12 (stereo not shown) [Compound 223] |
| 7.77 | 6.22 | 5.55 | 4.49 | 4.66 |  |  | 110 °C | 6.81 | 7.01 | CC(Nc1cc(F)c(F)c(F)c1)c1cc(C(=O)NCC(C)(C)O)cc2ncc(N3CCOCC3)nc12 (single isomer, unassigned) [Compound 292a] |
| 9.70 | 7.49 | 7.39 | 4.83 | 6.12 | 8.52 | 8.40 | 80 °C |  |  | O=C(c1cc(C2CCCN2c2cc(F)cc(F)c2)c2nc(N3CCOCC3)cnc2c1)N1CC2(COC2)C1 (single isomer, unassigned) [Compound 47] |
| 9.00 | 7.54 | 6.97 | < 4.52 | 6.08 | 8.30 | 8.22 | 80 °C |  |  | CN(C)C(=O)c1cc(C2CCCN2c2cccc(F)c2)c2nc(N3CCOCC3)cnc2c1 (stereo not shown) [Compound 28] |
| 6.20 | 5.45 | 5.40 | 4.73 | 4.49 |  |  | 102 °C | < 6.29 | < 6.29 | CN(C)C(=O)c1cc(N2CCCC2c2cc(F)cc(F)c2)c2nc(N3CCOCC3)cnc2c1 (single isomer, unassigned) [Compound 395b] |
| 6.26 | 4.81 | < 4.52 | < 4.52 | < 4.52 |  |  | 80 °C | < 6.29 | < 6.29 | CN[C@H]1CCN(C(=O)c2cc(C(C)Oc3ccc(F)c(F)c3)c3nc(N4CCOCC4)cnc3c2)C1 (single isomer, unassigned) [Compound 370b] |
| 6.51 | 5.11 | 5.14 | 4.51 | 5.20 | < 6.29 | < 6.29 | 80 °C |  |  | Cc1ccc(NC(C)c2cc(C(=O)NCCO)cc3ncc(N4CCOCC4)nc23)cc1F (stereo not shown) [Compound 295] |
| 8.70 | 6.80 | 6.95 | 5.88 | 6.09 |  |  | 240 °C | < 6.29 | < 6.29 | CC(Nc1cc(F)cc(F)c1)c1cc(C(=O)O)cc2ncc(N3CCOCC3)nc12 (stereo not shown) [Compound 83a] |
| 7.70 | 5.54 | 5.21 | < 4.52 | < 4.52 |  |  | 276 °C | 6.70 | 6.90 | O=C(c1cc(C2CCCN2c2cc(F)cc(F)c2)c2nc(N3CCOCC3)cnc2c1)N1CCC1 (single isomer, unassigned) [Compound 37] |
| 5.29 | 4.80 | 4.83 | < 4.52 | 4.60 | 6.32 | < 6.29 | 80 °C |  |  | CC(c1cc(C(=O)N(C)C)cc2ncc(N3CCOCC3)nc12)N(C)c1cccc(Cl)c1 (single isomer, unassigned) [Compound 140] |
| 7.85 | 5.66 | 5.17 | < 4.52 | < 4.52 | 6.32 | 6.57 | 80 °C |  |  | Cc1cccc(NC(C)c2cc(C(=O)N3CCOCC3)cc3ncc(N4CCOCC4)nc23)c1 (stereo not shown) [Compound 120] |
